{"source": "a flash point compilation (Sun et al. 2020)", "data": [{"units": {"flash point": "°C"}, "values": [{"smiles": "CC(C)C=O", "note": "[2-methylpropanal]", "flash point": -40.00}, {"smiles": "CC(CO)CO", "note": "[2-methylpropane-1,3-diol]", "flash point": 127.00}, {"smiles": "CC(C)C(=O)O.CC(C)C(O)C(C)(C)CO", "note": "(centres undefined) [2-methylpropanoic acid;2,2,4-trimethylpentane-1,3-diol]", "flash point": 120.00}, {"smiles": "CC(C)C(=O)O", "note": "[2-methylpropanoic acid]", "flash point": 56.00}, {"smiles": "C=C(C)C(=O)OCC(C)C", "note": "[2-methylpropyl 2-methylprop-2-enoate]", "flash point": 49.00}, {"smiles": "CC(C)CON=O", "note": "[2-methylpropyl nitrite]", "flash point": -23.00}, {"smiles": "O=[N+]([O-])c1ccccc1O", "note": "[2-nitrophenol]", "flash point": 108.00}, {"smiles": "CC(C)[N+](=O)[O-]", "note": "[2-nitropropane]", "flash point": 24.00}, {"smiles": "O=C(O)Cc1ccccc1", "note": "[2-phenylacetic acid]", "flash point": 132.00}, {"smiles": "Oc1ccccc1-c1ccccc1", "note": "[2-phenylphenol]", "flash point": 124.00}, {"smiles": "CC(C)OCCO", "note": "[2-propan-2-yloxyethanol]", "flash point": 33.00}, {"smiles": "CC(C)OC(C)C", "note": "[2-propan-2-yloxypropane]", "flash point": -28.00}, {"smiles": "CC(C)c1ccccc1O", "note": "[2-propan-2-ylphenol]", "flash point": 104.00}, {"smiles": "CCCOCCO", "note": "[2-propoxyethanol]", "flash point": 49.00}, {"smiles": "CCCC(CCC)C(=O)O", "note": "[2-propylpentanoic acid]", "flash point": 111.00}, {"smiles": "OCCS", "note": "[2-sulfanylethanol]", "flash point": 74.00}, {"smiles": "CC(C)(C)c1cc(O)ccc1O", "note": "[2-tert-butylbenzene-1,4-diol]", "flash point": 171.00}, {"smiles": "CC(=O)C(C)(C)C", "note": "[3,3-dimethylbutan-2-one]", "flash point": 5.00}, {"smiles": "Nc1ccc(Cl)c(Cl)c1", "note": "[3,4-dichloroaniline]", "flash point": 166.00}, {"smiles": "O=C1CCCc2ccccc21", "note": "[3,4-dihydro-2H-naphthalen-1-one]", "flash point": 129.00}, {"smiles": "O=C1CCc2ccccc2O1", "note": "[3,4-dihydrochromen-2-one]", "flash point": 130.00}, {"smiles": "CC1=CC(=O)CC(C)(C)C1", "note": "[3,5,5-trimethylcyclohex-2-en-1-one]", "flash point": 84.00}, {"smiles": "Cc1cc(C)cc(O)c1", "note": "[3,5-dimethylphenol]", "flash point": 80.00}, {"smiles": "CC(C)=CCCC(C)CC=O", "note": "(centres undefined) [3,7-dimethyloct-6-enal]", "flash point": 74.00}, {"smiles": "C=CC(C)(CCC=C(C)C)OC(C)=O", "note": "(centres undefined) [3,7-dimethylocta-1,6-dien-3-yl acetate]", "flash point": 94.00}, {"smiles": "N#CCCNCCC#N", "note": "[3-(2-cyanoethylamino)propanenitrile]", "flash point": 110.00}, {"smiles": "CCC1CCC(CCC(=O)O)C1", "note": "(centres undefined) [3-(3-ethylcyclopentyl)propanoic acid]", "flash point": 101.00}, {"smiles": "CC1(C)CC(N)CC(C)(CN)C1", "note": "(centres undefined) [3-(aminomethyl)-3,5,5-trimethylcyclohexan-1-amine]", "flash point": 110.00}, {"smiles": "CN(C)CCC#N", "note": "[3-(dimethylamino)propanenitrile]", "flash point": 64.00}, {"smiles": "C1CC2OC2CC1C1CO1", "note": "(centres undefined) [3-(oxiran-2-yl)-7-oxabicyclo[4.1.0]heptane]", "flash point": 110.00}, {"smiles": "Nc1cccc(C(F)(F)F)c1", "note": "[3-(trifluoromethyl)aniline]", "flash point": 85.00}, {"smiles": "CN1CCC[C@H]1c1cccnc1", "note": "[3-[(2S)-1-methylpyrrolidin-2-yl]pyridine]", "flash point": 95.00}, {"smiles": "NCCCO", "note": "[3-aminopropan-1-ol]", "flash point": 79.00}, {"smiles": "C=CCBr", "note": "[3-bromoprop-1-ene]", "flash point": -2.00}, {"smiles": "C#CCBr", "note": "[3-bromoprop-1-yne]", "flash point": 10.00}, {"smiles": "Cc1ccc(N)cc1Cl", "note": "[3-chloro-4-methylaniline]", "flash point": 100.00}, {"smiles": "Nc1cccc(Cl)c1", "note": "[3-chloroaniline]", "flash point": 124.00}, {"smiles": "C=CCCl", "note": "[3-chloroprop-1-ene]", "flash point": -32.00}, {"smiles": "N#CCCCl", "note": "[3-chloropropanenitrile]", "flash point": 76.00}, {"smiles": "CCOCCCO", "note": "[3-ethoxypropan-1-ol]", "flash point": 54.00}, {"smiles": "CC(=O)C(C)O", "note": "(centres undefined) [3-hydroxybutan-2-one]", "flash point": 41.00}, {"smiles": "CC(O)CC=O", "note": "(centres undefined) [3-hydroxybutanal]", "flash point": 66.00}, {"smiles": "C=CC(=O)OCCCO", "note": "[3-hydroxypropyl prop-2-enoate]", "flash point": 97.00}, {"smiles": "C=CCN=C=S", "note": "[3-isothiocyanatoprop-1-ene]", "flash point": 46.00}, {"smiles": "CCC=CCC1=C(C)CCC1=O", "note": "[3-methyl-2-pent-2-enylcyclopent-2-en-1-one]", "flash point": 107.00}, {"smiles": "Cc1cccc(N)c1", "note": "[3-methylaniline]", "flash point": 86.00}, {"smiles": "CSCCC=O", "note": "[3-methylsulfanylpropanal]", "flash point": 61.00}, {"smiles": "CC(=O)CC(=O)Nc1ccccc1", "note": "[3-oxo-N-phenylbutanamide]", "flash point": 163.00}, {"smiles": "S=c1[nH]c2ccccc2s1", "note": "[3H-1,3-benzothiazole-2-thione]", "flash point": 200.00}, {"smiles": "O=C1OC(=O)C2CC=CCC12", "note": "(centres undefined) [3a,4,7,7a-tetrahydro-2-benzofuran-1,3-dione]", "flash point": 157.00}, {"smiles": "O=C1OC(=O)c2c(Cl)c(Cl)c(Cl)c(Cl)c21", "note": "[4,5,6,7-tetrachloro-2-benzofuran-1,3-dione]", "flash point": 362.00}, {"smiles": "CC(=O)C=CC1C(C)=CCCC1(C)C", "note": "(centres undefined) [4-(2,6,6-trimethylcyclohex-2-en-1-yl)but-3-en-2-one]", "flash point": 118.00}, {"smiles": "CC1(N)CCC(C(C)(C)N)CC1", "note": "(centres undefined) [4-(2-aminopropan-2-yl)-1-methylcyclohexan-1-amine]", "flash point": 93.00}, {"smiles": "CCC(C)(C)c1ccc(O)cc1", "note": "[4-(2-methylbutan-2-yl)phenol]", "flash point": 111.00}, {"smiles": "Cc1cc(-c2ccc(N)c(C)c2)ccc1N", "note": "[4-(4-amino-3-methylphenyl)-2-methylaniline]", "flash point": 244.00}, {"smiles": "C1CN(SSN2CCOCC2)CCO1", "note": "[4-(morpholin-4-yldisulfanyl)morpholine]", "flash point": 121.00}, {"smiles": "CN(C)c1ccc(N)cc1", "note": "[4-N,4-N-dimethylbenzene-1,4-diamine]", "flash point": 91.00}, {"smiles": "CC(C)CC(C)Nc1ccc(Nc2ccccc2)cc1", "note": "(centres undefined) [4-N-(4-methylpentan-2-yl)-1-N-phenylbenzene-1,4-diamine]", "flash point": 204.00}, {"smiles": "Nc1ccc(Nc2ccccc2)cc1", "note": "[4-N-phenylbenzene-1,4-diamine]", "flash point": 193.00}, {"smiles": "N=C(N)c1ccc(OCCCCCOc2ccc(C(=N)N)cc2)cc1", "note": "[4-[5-(4-carbamimidoylphenoxy)pentoxy]benzenecarboximidamide]", "flash point": 103.00}, {"smiles": "Nc1ccc(Cc2ccc(N)c(Cl)c2)cc1Cl", "note": "[4-[(4-amino-3-chlorophenyl)methyl]-2-chloroaniline]", "flash point": 113.00}, {"smiles": "CC/C(=C(/CC)c1ccc(O)cc1)c1ccc(O)cc1", "note": "[4-[(E)-4-(4-hydroxyphenyl)hex-3-en-3-yl]phenol]", "flash point": 104.00}, {"smiles": "CN(C)c1ccc(Cc2ccc(N(C)C)cc2)cc1", "note": "[4-[[4-(dimethylamino)phenyl]methyl]-N,N-dimethylaniline]", "flash point": 211.00}, {"smiles": "Cc1cc(Cl)ccc1N", "note": "[4-chloro-2-methylaniline]", "flash point": 160.00}, {"smiles": "Cc1cc(O)ccc1Cl", "note": "[4-chloro-3-methylphenol]", "flash point": 110.00}, {"smiles": "Nc1ccc(Cl)cc1", "note": "[4-chloroaniline]", "flash point": 113.00}, {"smiles": "C=CC1CC=CCC1", "note": "(centres undefined) [4-ethenylcyclohexene]", "flash point": 16.00}, {"smiles": "CCN1CCOCC1", "note": "[4-ethylmorpholine]", "flash point": 28.00}, {"smiles": "COc1cc(C=O)ccc1O", "note": "[4-hydroxy-3-methoxybenzaldehyde]", "flash point": 153.00}, {"smiles": "COc1ccc(O)cc1", "note": "[4-methoxyphenol]", "flash point": 132.00}, {"smiles": "CC1COC(=O)O1", "note": "(centres undefined) [4-methyl-1,3-dioxolan-2-one]", "flash point": 116.00}, {"smiles": "Cc1ccc(N)c([N+](=O)[O-])c1", "note": "[4-methyl-2-nitroaniline]", "flash point": 157.00}, {"smiles": "Cc1ccc(N)cc1[N+](=O)[O-]", "note": "[4-methyl-3-nitroaniline]", "flash point": 157.00}, {"smiles": "Cc1ccc(N)cc1", "note": "[4-methylaniline]", "flash point": 87.00}, {"smiles": "Cc1ccc(C#N)cc1", "note": "[4-methylbenzonitrile]", "flash point": 85.00}, {"smiles": "CC1CCC(O)CC1", "note": "(centres undefined) [4-methylcyclohexan-1-ol]", "flash point": 70.00}, {"smiles": "C=C1CC(=O)O1", "note": "[4-methylideneoxetan-2-one]", "flash point": 34.00}, {"smiles": "CC(=O)C=C(C)C", "note": "[4-methylpent-3-en-2-one]", "flash point": 23.00}, {"smiles": "C=CC=C(C)C", "note": "[4-methylpenta-1,3-diene]", "flash point": -34.00}, {"smiles": "CC(C)CC(C)O", "note": "(centres undefined) [4-methylpentan-2-ol]", "flash point": 41.00}, {"smiles": "CC(=O)CC(C)C", "note": "[4-methylpentan-2-one]", "flash point": 23.00}, {"smiles": "CCCCCCCCc1ccc(O)cc1", "note": "[4-octylphenol]", "flash point": 113.00}, {"smiles": "CCc1ccc(C)nc1", "note": "[5-ethyl-2-methylpyridine]", "flash point": 68.00}, {"smiles": "CCC1(c2ccccc2)C(=O)NC(=O)NC1=O", "note": "[5-ethyl-5-phenyl-1,3-diazinane-2,4,6-trione]", "flash point": 174.00}, {"smiles": "CC=C1CC2C=CC1C2", "note": "(centres undefined) [5-ethylidenebicyclo[2.2.1]hept-2-ene]", "flash point": 26.00}, {"smiles": "Cc1cnc[nH]1", "note": "[5-methyl-1H-imidazole]", "flash point": 157.00}, {"smiles": "CC(=O)CCC(C)C", "note": "[5-methylhexan-2-one]", "flash point": 36.00}, {"smiles": "C=CCc1ccc2c(c1)OCO2", "note": "[5-prop-2-enyl-1,3-benzodioxole]", "flash point": 98.00}, {"smiles": "C=C1CCC2CC1C2(C)C", "note": "(centres undefined) [6,6-dimethyl-2-methylidenebicyclo[3.1.1]heptane]", "flash point": 31.00}, {"smiles": "CCOc1ccc2c(c1)C(C)=CC(C)(C)N2", "note": "[6-ethoxy-2,2,4-trimethyl-1H-quinoline]", "flash point": 107.00}, {"smiles": "CC1=C(C(=O)Nc2ccccc2)SCCO1", "note": "[6-methyl-N-phenyl-2,3-dihydro-1,4-oxathiine-5-carboxamide]", "flash point": 203.00}, {"smiles": "Cc1ccc2oc(=O)ccc2c1", "note": "[6-methylchromen-2-one]", "flash point": 130.00}, {"smiles": "CC(C)CCCCCOC(=O)COc1cc(Cl)c(Cl)cc1Cl", "note": "[6-methylheptyl 2-(2,4,5-trichlorophenoxy)acetate]", "flash point": 69.00}, {"smiles": "Cc1c2ccccc2c(C)c2c1ccc1ccccc12", "note": "[7,12-dimethylbenzo[a]anthracene]", "flash point": 86.00}]}]}
